The values below come from ChEMBL document CHEMBL5233281, “Design, synthesis and biological evaluation of novel 1,3,4,9-tetrahydropyrano[3,4-b]indoles as potential treatment of triple negative breast cancer by suppressing PI3K/AKT/mTOR pathway” (Bioorg Med Chem, 2021).

In series [1] the test system is A549. Description: Antiproliferative activity against human A549 cells assessed as inhibition of cell growth incubated for 72 hrs by CCK8 assay. It is filed as functional, cell-based. Particulars: A549, 72 h.
In series [2] the test system is BGC-823. Description: Antiproliferative activity against human BGC-823 cells assessed as inhibition of cell growth incubated for 72 hrs by CCK8 assay. Particulars: BGC-823, 72 h. It is filed as functional, cell-based. Background: Tetrazolium assays rely on reduction of a dye to a coloured formazan, in cell work by metabolically active cells.
Series [3] deals with PC-3. Put plainly: Antiproliferative activity against human PC-3 cells assessed as inhibition of cell growth incubated for 72 hrs by CCK8 assay. It is filed as functional, cell-based. Particulars: PC-3, 72 h.
Series [4] has as its system MCF7. Put plainly: Antiproliferative activity against human MCF7 cells assessed as inhibition of cell growth incubated for 72 hrs by CCK8 assay. It is filed as functional, cell-based. Particulars: MCF7, 72 h.
Series [5] concerns MDA-MB-231. Description: Antiproliferative activity against human MDA-MB-231 cells assessed as inhibition of cell growth incubated for 72 hrs by CCK8 assay. It counts as functional, cell-based. Particulars: MDA-MB-231, 72 h.
Series [6] relates to MDA-MB-231. Put plainly: Antiproliferative activity against human MDA-MB-231 cells assessed as inhibition of cell growth incubated for 72 hrs by SRB assay. It counts as functional, cell-based. Particulars: MDA-MB-231, 72 h. Background: In SRB staining, fixed cells bind dye roughly in proportion to their protein.
A short description of series [7]: Antiproliferative activity against human MCF-10A cells assessed as inhibition of cell growth incubated for 72 hrs by CCK8 assay. It is filed as toxicity, cell-based.
The nature of series [8]: Selectivity index, ratio of IC50 for antiproliferative activity against human MCF-10A cells to IC50 for antiproliferative activity against human MDA-MB-231 cells. It counts as toxicity, cell-based. Particulars: MCF-10A cells and MDA-MB-231 cells, read-out: Ratio IC50.

As to `c1ccc(C2OCCc3c2[nH]c2ccccc32)cc1` (stereo unspecified), the IC50 in series [1], in series [2], in series [3], in series [4] and in series [5] was over 20 µM in each case.
As for `C[C@@H](Nc1cc(F)cc(F)c1)c1cc(C(=O)N(C)C)cc2c(=O)cc(N3CCOCC3)oc12` [AZD-8186], in series [6], the half-inhibitory concentration (IC50) (commonly the concentration needed to halve the response being measured) came out at 6.99 µM.
As for `Cc1ccc(C2OCCc3c2[nH]c2ccccc32)cc1` (stereo unspecified), the half-maximal inhibitory concentration (IC50) in series [1] was over 20 µM; in series [2], over 20 µM; in series [3], 18.2 µM; in series [4], over 20 µM; in series [5], over 20 µM.
For `COc1ccc(C2OCCc3c2[nH]c2ccccc32)c(OC)c1OC` (stereo unspecified), the half-inhibitory concentration (IC50) in series [1] was over 20 µM; in series [2], over 20 µM; in series [3], 19.7 µM; in series [4] it was over 20 µM; in series [5], over 20 µM.
For `COc1cccc(C2OCCc3c2[nH]c2ccccc32)c1` (stereo unspecified), the half-maximal inhibitory concentration (IC50) in series [1] was over 20 µM; in series [2], over 20 µM; in series [3], over 20 µM; in series [4], 18 µM; in series [5] it was 15.3 µM. Besides, the IC50 at 72 h in series [7] was 40.8 µM. Further, the selectivity ratio in series [8] is 2.67.
In the case of `Clc1ccc(C2OCCc3c2[nH]c2ccccc32)cc1` (stereo unspecified), the concentration for half-maximal inhibition (IC50) in series [1] was 17.6 µM; in series [2], 12.3 µM; in series [3], 12.8 µM; in series [4], 15.8 µM; in series [5], 13.1 µM. The 50% inhibitory concentration (IC50) at 72 h in series [7] stood at 35.4 µM.
In the case of `COc1ccc(C2OCCc3c2[nH]c2ccccc32)cc1OC` (stereo unspecified), the IC50 in series [1] was over 20 µM; in series [2], over 20 µM; in series [3], 18.1 µM; in series [4] it was over 20 µM; in series [5] it was 17.8 µM. The IC50 at 72 h in series [7] was 40.4 µM. Further, the selectivity ratio in series [8] stood at 2.27.
Consider `COc1ccccc1C1OCCc2c1[nH]c1ccccc21` (stereo unspecified), for which the IC50 in series [1], in series [2], in series [3], in series [4] and in series [5] was over 20 µM each time.
For `COc1ccc2cc(C3OCCc4c3[nH]c3ccccc43)ccc2c1` (stereo unspecified), the concentration for half-maximal inhibition (IC50) was determined as 15.4 µM in series [1]; 13.2 µM in series [2]; 12.6 µM in series [3]; 12.2 µM in series [4]; 4.59 µM in series [5]. Moreover, the half-maximal inhibitory concentration (IC50) at 72 h in series [7] is 21.9 µM. Further, the selectivity ratio in series [8] stood at 4.77.
Take `CC(=O)Oc1ccc(C2OCCc3c2[nH]c2ccccc32)cc1` (stereo unspecified): the IC50 is over 20 µM in series [1]; over 20 µM in series [2]; over 20 µM in series [3]; 19.4 µM in series [4]; over 20 µM in series [5].
For the compound `c1ccc2cc(C3OCCc4c3[nH]c3ccccc43)ccc2c1` (stereo unspecified), the half-maximal inhibitory concentration (IC50) was over 20 µM in series [1]; 17.8 µM in series [2]; over 20 µM in series [3]; over 20 µM in series [4]; over 20 µM in series [5].
Consider `COc1ccc(C2OCCc3c2[nH]c2ccc(OC)cc32)cc1` (stereo unspecified), for which the half-maximal inhibitory concentration (IC50) is over 20 µM in series [1]; over 20 µM in series [2]; over 20 µM in series [3]; over 20 µM in series [4]; 16.9 µM in series [5]. In addition, in series [7], the half-inhibitory concentration (IC50) at 72 h amounted to 51.9 µM. Besides, the selectivity ratio in series [8] was found to be 3.07.
As for `COc1ccc(C2OCCc3c2[nH]c2ccc(Br)cc32)cc1` (stereo unspecified), the IC50 was over 20 µM in series [1]; over 20 µM in series [2]; over 20 µM in series [3]; over 20 µM in series [4]; 16.5 µM in series [5]. Further, the half-maximal inhibitory concentration (IC50) at 72 h in series [7] was determined as 45.1 µM. The selectivity ratio in series [8] came to 2.42.
For the compound `COc1ccc2cc(C3OCCc4c3n(Cc3ccccc3)c3ccccc43)ccc2c1` (stereo unspecified), the concentration for half-maximal inhibition (IC50) is 19.9 µM in series [1]; 19.7 µM in series [2]; 14.8 µM in series [3]; 16.5 µM in series [4]; 15.8 µM in series [5]. Besides, in series [7], the 50% inhibitory concentration (IC50) at 72 h was found to be 41.4 µM. In addition, the selectivity ratio in series [8] was 2.63.
Take `COc1ccc2cc(C3OCCc4c3n(C)c3ccccc43)ccc2c1` (stereo unspecified): the IC50 in series [1] was 17.5 µM; in series [2], 18.1 µM; in series [3], 16.7 µM; in series [4], 12.7 µM; in series [5], 11.6 µM. Further, in series [7], the IC50 at 72 h worked out at 30 µM. In series [8], the selectivity ratio stood at 3.35.
`COc1cc(C2OCCc3c2[nH]c2ccccc32)cc(OC)c1OC` (stereo unspecified): the IC50 came out at 19 µM in series [1]; 18.3 µM in series [2]; 13.9 µM in series [3]; 18.5 µM in series [4]; 13.5 µM in series [5]. For the same compound, the half-inhibitory concentration (IC50) at 72 h in series [7] came to 46.2 µM.
As to `Cc1cccc(C2OCCc3c2[nH]c2ccccc32)c1` (stereo unspecified), the IC50 in series [1], in series [2], in series [3], in series [4] and in series [5] was over 20 µM each time.
`COc1ccc(C2OCCc3c2[nH]c2ccccc32)cc1` (stereo unspecified): the concentration for half-maximal inhibition (IC50) in series [1] was 18.9 µM; in series [2], 15.6 µM; in series [3], 17.8 µM; in series [4], 16.6 µM; in series [5], 10.8 µM. Besides, the IC50 at 72 h in series [7] was found to be 35.9 µM. In addition, in series [8], the selectivity ratio was 3.32.
For `c1ccc(-c2ccc(C3OCCc4c3[nH]c3ccccc43)cc2)cc1` (stereo unspecified), the half-inhibitory concentration (IC50) in series [1], in series [2], in series [3], in series [4] and in series [5] was over 20 µM each time.
As for `Fc1ccc(C2OCCc3c2[nH]c2ccccc32)cc1` (stereo unspecified), the IC50 in series [1] turned out to be 19.4 µM; in series [2], 14.7 µM; in series [3] it was 6.21 µM; in series [4], 7.05 µM; in series [5], 6.8 µM. In addition, the IC50 at 72 h in series [7] amounted to 32 µM. Further, the selectivity ratio in series [8] stood at 6.8.
